Legend:
[1] = tested on: a variety of fungal species, including C. albicans; settings: Sabouraud dextrose agar; cited from earlier work
C. neoformans [2] = assay: Growth of C. neoformans cultures (absorbance at 600 nm); format: cell-based, Cryptococcus neoformans; settings: single 300 μM dose, exponential phase, 30° C., SAB, up to 24 h
Procedure: (§1) Panel A, survey of the effects of several oxatetradecanoic acids on the growth of C. neoformans. A culture of C. neoformans was grown at 30° C. in SAB media to midlog phase (A600 ~0.5). A single dose of fatty acid was then added to subcultures (final concentration=300 μM). EtOH(0.1%) was used as a negative control. Amphotericin B (AmB) was added (final concentraton=55 μM) as a positive control. Aliquots were withdrawn from the subcultures 0, 0.5, 2, 4, 7, 21, and 24 h after these additions and then absorbance at 600 nm was measured. All assays were done in duplicate or triplicate. A representative test is shown. Panel B, survey of the effects of oxatetradecanoic acids, dioxatetradecanoic acids and oxatridecanoic acids on the viability of C. neoformans. Fatty acid analog was added to the cultures as in Panel A. Aliquots were withdrawn 0.5, 2, 4, 7 or 8, and 24 h later and plated on SAB-agar at various dilutions to determine the number of viable organisms/ml culture. All assays were done in duplicate. Data from a representative test are expressed as the ratio of viable cells in treated cultures relative to a control culture that received 0.1% EtOH. A positive control culture received a single dose of amphotericin B (55 μM); Panel C, dose-dependent reduction in the viability of C. neoformans after addition of 4-oxatetradecanoic acid (O4) to cultures during log-phase growth at 30° C. in SAB. A single dose of the analog was given at T=0 h in the amount indicated and aliquots of the culture were withdrawn at various times to determine the number of viable cells. All assays were done in triplicate. A representative test is shown.
Saccharomyces cerevisiae strain YM2061 (MATa ura3-52 his3Δ200 ade2-101 lys2-801 met LEU2::pRY181 can1; Flick and Johnston, Mol. Cell. Biol. 10, 4757-4769 (1990), Candida albicans strain B311 (obtained from the American Type Tissue Culture, Rockville, Md.), or Cryptococcus neoformans strain L210425 (a clinical isolate that is part of the permanent culture collection of the Mycology Laboratory, Barnes Hospital, St. Louis, Mo.) were grown overnight at 30 C. The S. cerevisiae strain was incubated in YPD medium (1% bacto-yeast extract, Gibco, Long Island, N.Y.), 2% bacto-peptone (Gibco), 2% dextrose). The C. albicans and C. neoformans strains were grown in Sabouraud's media (SAB; 2% (w/v) dextrose, 1% bacto-peptone). The following morning the cultures were diluted into fresh medium to the desired density at 600 nm (early log phase), and subsequently incubated in a rotary shaker at 30° C. until an A600 =0.5 (mid log phase) was achieved. The culture was then divided into 10 ml aliquots. A single 10 μl aliquot of a stock solution of fatty acid analog (prepared in various concentrations using absolute ethanol) was added to the culture so that the final concentration of the compound was 100-500 μM (T=0). Ten microliters of ethanol alone was added to one 10 ml culture which served as the negative control. […] Cell viability was determined at each of these time points by (i) serially diluting the aliquot in 0.15M NaCl and counting cell number in a hemocytometer and (ii) plating 2-3 of the dilutions in triplicate onto plates of SAB/agar (C. albicans and C. neoformans) or YPD/agar (S. cerevisiae). […] The data were expressed as the ratio of viable cells/ml in the fatty acid analog treated subculture to the number of viable cells/ml in the negative (ethanol) control culture. […]

C. neoformans [3] = assay: Viability of C. neoformans (viable cells relative to EtOH control culture); format: cell-based, Cryptococcus neoformans; settings: 300 μM single dose; for fungicidal / fungistatic effect on C. neoformans: screening assay; for log reduction at 300 µM: Cryptococcus neoformans, relative to 0.1% EtOH control, read-out: decrease in viable cells (converted)
Procedure: as §1
Saccharomyces cerevisiae strain YM2061 (MATa ura3-52 his3Δ200 ade2-101 lys2-801 met LEU2::pRY181 can1; Flick and Johnston, Mol. Cell. Biol. 10, 4757-4769 (1990), Candida albicans strain B311 (obtained from the American Type Tissue Culture, Rockville, Md.), or Cryptococcus neoformans strain L210425 (a clinical isolate that is part of the permanent culture collection of the Mycology Laboratory, Barnes Hospital, St. Louis, Mo.) were grown overnight at 30 C. The S. cerevisiae strain was incubated in YPD medium (1% bacto-yeast extract, Gibco, Long Island, N.Y.), 2% bacto-peptone (Gibco), 2% dextrose). The C. albicans and C. neoformans strains were grown in Sabouraud's media (SAB; 2% (w/v) dextrose, 1% bacto-peptone). The following morning the cultures were diluted into fresh medium to the desired density at 600 nm (early log phase), and subsequently incubated in a rotary shaker at 30° C. until an A600 =0.5 (mid log phase) was achieved. The culture was then divided into 10 ml aliquots. A single 10 μl aliquot of a stock solution of fatty acid analog (prepared in various concentrations using absolute ethanol) was added to the culture so that the final concentration of the compound was 100-500 μM (T=0). Ten microliters of ethanol alone was added to one 10 ml culture which served as the negative control. Amphotericin B (AmB; in the form of Fungizone, Squibb) was added (final concentration=55 μM) to another culture which served as the positive control. At T=0 and 0.5-24 h after addition of fatty acid analog to the subcultures, an aliquot was removed for determining the density of the subculture at 600 nm. Cell viability was determined at each of these time points by (i) serially diluting the aliquot in 0.15M NaCl and counting cell number in a hemocytometer and (ii) plating 2-3 of the dilutions in triplicate onto plates of SAB/agar (C. albicans and C. neoformans) or YPD/agar (S. cerevisiae). These plates were subsequently incubated at 30° C. for 24-48 hr to allow for the growth of colonies. The data were expressed as the ratio of viable cells/ml in the fatty acid analog treated subculture to the number of viable cells/ml in the negative (ethanol) control culture.

[4] = tested on: S. cerevisiae N-myristoylproteins; assay: Metabolic labeling of cellular N-myristoylproteins with tritiated fatty acids; format: cell-based; settings: tritiated analog, 1 h, 30° C.
Procedure: (§2) Cells were labeled for 1 h with fatty acids of equal specific activity. Total cellular proteins were reduced, denatured and subjected to SDS-PAGE. Gels were treated overnight with 1 N hydrocylamine (pH 10) at room temperature followed by EN^3 HANCE. Fluorography was performed at -80° C. The exposure time for all gels was identical (2 weeks) as was the total amount of cellular protein added to each lane (100 μg).
(§3) Analysis of the incorporation of exogenous fatty acids into cellular proteins--Cultures of S. cerevisiae YM2061, C. albicans B311, and C. neoformans L210425 were grown overnight at 30° C. in YPD or SAB broth. In the morning, C. albicans and C. neoformans were diluted to an A600 =0.6. All cultures were subsequently shaken at 30° C. until they achieved an A600 =1.2. A 5 ml aliquot of each culture was then incubated at 30° C. with 100 μCi/ml of either [9,10(n)^3 H]myristate (NEN Research Products, Dupont, Boston, Mass.); [6,7(n)^3 H]4-oxatetradecanoate; [9,10(n)^3 H]6-oxatetradecanoate;[9,10(n)^3 H]11-oxatetradecanoate; or [10,11(n)^3 H]13-oxatetradecanoate (the final specific activity of all tritiated fatty acids=30 Ci/mmol, their final concentration=3.3 μM). The cultures were then chilled on ice for 5 min and the cells harvested by centrifugation at 4000×g for 5 min. The pellet was washed by gentle vortexing in 1 ml of phosphate buffered saline (PBS, maintained at 4° C.). The yeast cells were then pelleted by centrifugation (as above) and broken open by vortexing with 500 μm glass beads in a 200 μl solution containing 240 mM Tris-HCl, pH 6.8, 2% SDS, 0.4% β-mercaptoethanol, 0.002% bromophenol blue, and 10% glycerol. The solution was then boiled for 5 min and cellular debris was removed by centrifugation at 12,000×g for 10 min. One hundred μg [Lowry et al., J. Biol. Chem. 193, 265-275 (1951)] of lysate protein from each sample was subjected to denaturation, reduction and electrophoresis through 12% polyacrylamide gels containing 0.1% SDS [Laemmli, Nature 227, 680-685 (1970)]. Duplicate gels were incubated overnight with 1M Tris, pH 7.4, or 1N hydroxylamine, pH 10. Fluorography was performed by treating gels with EN^3 HANCE (NEN Research Products, Dupont) and, following drying, exposing them to Kodak XAR film at -80° C.

HIV-1 = settings: cited from earlier work
[5] = biological target: T1, human myristoylCoA:protein N-myristoyltransferase (NMT) (Homo sapiens, UniProt P30419); settings: cited from earlier work
T1 sequence (P30419 1-496): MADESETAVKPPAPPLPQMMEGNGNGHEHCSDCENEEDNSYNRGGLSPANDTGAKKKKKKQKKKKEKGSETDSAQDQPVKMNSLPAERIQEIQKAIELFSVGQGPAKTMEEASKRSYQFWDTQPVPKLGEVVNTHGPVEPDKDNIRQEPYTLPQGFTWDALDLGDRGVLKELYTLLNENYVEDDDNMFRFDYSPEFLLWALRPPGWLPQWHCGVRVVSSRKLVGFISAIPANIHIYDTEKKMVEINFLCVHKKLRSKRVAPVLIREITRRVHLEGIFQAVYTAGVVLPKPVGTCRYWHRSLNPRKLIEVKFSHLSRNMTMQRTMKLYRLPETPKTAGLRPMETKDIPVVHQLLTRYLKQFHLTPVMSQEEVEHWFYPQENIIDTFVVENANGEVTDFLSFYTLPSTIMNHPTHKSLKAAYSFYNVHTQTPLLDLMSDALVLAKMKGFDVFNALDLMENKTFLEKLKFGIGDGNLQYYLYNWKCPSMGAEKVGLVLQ

[6] = tested on: human acyl CoA synthetase; settings: cited from earlier work
[7] = tested on: C. neoformans N-myristoylproteins; assay: Metabolic labeling of cellular N-myristoylproteins with tritiated fatty acids; format: cell-based; settings: tritiated analog, 1 h, 30° C.
Procedure: as §2, §3

[8] = tested on: C. albicans N-myristoylproteins; assay: as above; format: cell-based; settings: tritiated analog, 1 h, 30° C.
Procedure: as §2, §3

For `CCCCCCCCOCC(=O)O` [3-oxaundecanoic acid, reference compound], the “effect on growth of fungal species” value [1] is given as “broadest spectrum and highest potency”.

In the case of `CCCCCCCCCCCOCC(=O)O` [O3, 3-oxatetradecanoic acid], the “effect on growth of C. neoformans, as determined by optical density” value (C. neoformans [2]) is given as “intermediate degrees of growth retardation”, the “effect on growth of fungal species” value [1] is given as “inhibited growth” and the “fungicidal / fungistatic effect on C. neoformans” value (“fungicidal / fungistatic effect” for short) (C. neoformans [3]) is given as “fungicidal”. The log reduction at 300 µM (C. neoformans [3]) was 1.

In the case of `COCCCCCCCCCCCC(=O)O` [O13, 13-oxatetradecanoic acid], the “incorporation into the 55 kDa Gpal polypeptide” value [4] is listed as “not”, the “labeling of the 20 kDa Arfs” value [4] is listed as “comparable intensity” and the HIV-1 replication (HIV-1; acutely and chronically infected human T-lymphocyte cell lines) is listed as “inhibits HIV-1 replication”. For the same molecule, the “cellular toxicity at HIV-1 inhibiting doses” value (HIV-1; human T-lymphocyte cell lines) was “do not cause cellular toxicity”, the “substrate for human NMT” value [5] was “is a substrate” and the “substrate for human acyl CoA synthetase” value [6] was “is a substrate”. The “fungicidal / fungistatic effect” value (C. neoformans [3]) was “no measurable effect on the growth”.

With `CCCCCCCCOCCCCC(=O)O` [O6, 6-Oxatetradecanoic acid] the “labeling of C. neoformans N-myristoylproteins versus [3H]myristate” value [7] was “more intense labeling of 20 and 16 kDa C. neoformans N-myristoylproteins than did myristate”, the “labeling of S. cerevisiae N-myristoylproteins versus [3H]myristate” value [4] was “failed to label” and the “labeling of C. albicans N-myristoylproteins versus [3H]myristate” value [8] was “barely labeled”. For the same molecule, the “effect on growth of C. neoformans, as determined by optical density” value (C. neoformans [2]) was “intermediate degrees of growth retardation”, the “time needed to produce the decrease in viable cells” value (C. neoformans [3]) was 4 h and the “fungicidal / fungistatic effect” value (C. neoformans [3]) was “fungicidal”. The log reduction at 300 µM (C. neoformans [3]) was 1.
